Values after ≈ are worked out from the molar mass of the structure shown.
Key:
[1] = tested on: KB (human epidermoid carcinoma); experiment: Cytotoxicity assay, KB; format: cell-based; details: 48 h, read-out: IC50 KB
[2] = tested on: P. falciparum Sierra Leone D6 (chloroquine-sensitive); experiment: Antimalarial/parasite LDH assay, D6 clone; format: cell-based; details: Plasmodium falciparum, D6, 72 h, read-out: P. falciparum D6 IC50
[3] = tested on: Mycobacterium intracellulare ATCC 23068; experiment: Antimicrobial assay, M. intracellulare; format: cell-based; details: for MIC: ATCC23068, read-out: MIC, M. intracellulare
RBC = experiment: Hemolytic activity; details: from IC50 (RBC lysis)
[4] = tested on: P. berghei (NK-65 strain); experiment: In vivo antimalarial assay
[5] = tested on: methicillin-resistant Staphylococcus aureus ATCC 43300; experiment: Antimicrobial assay, MRSA; format: cell-based; details: ATCC43300|MRSA; for MBC: read-out: MBC, MRSA; for MIC: read-out: MIC, MRSA
[6] = tested on: SK-MEL (human malignant melanoma); experiment: Cytotoxicity assay, SK-MEL; format: cell-based; details: 48 h, read-out: IC50 SK-MEL
[7] = tested on: Candida albicans ATCC 90028; experiment: Antimicrobial assay, C. albicans; format: cell-based; details: ATCC90028, read-out: IC50, C. albicans
[8] = tested on: L. donovani promastigotes; experiment: Antileishmanial assay; format: cell-based; details: Leishmania donovani, 48 h, read-out: L. donovani IC50
[9] = tested on: Aspergillus fumigatus ATCC 90906; experiment: Antimicrobial assay, A. fumigatus; format: cell-based; details: ATCC90906, read-out: IC50, A. fumigatus
[10] = tested on: Cryptococcus neoformans ATCC 90113; experiment: Antimicrobial assay, C. neoformans; format: cell-based

C[C@@H]1[C@H](O)[C@@H](C)/C=C/C=C/C=C/C=C/C=C/C=C/C=C/[C@H](O[C@@H]2O[C@H](C)[C@@H](O)[C@H](N)[C@@H]2O)C[C@@H]2O[C@](O)(C[C@@H](O)C[C@@H](O)[C@H](O)CC[C@@H](O)C[C@@H](O)CC(=O)O[C@H]1C)C[C@H](O)[C@H]2C(=O)O [Amphotericin B]
IC50 [1]: > 25 µg/mL

CCN(CC)CCCC(C)Nc1ccnc2cc(Cl)ccc12 (stereo not drawn) [Chloroquine, chloroquine, reference compound]
IC50 [2]: 0.017 µg/mL (≈ 0.0531 µM)

O=C(O)c1cn(C2CC2)c2cc(N3CCNCC3)c(F)cc2c1=O [Ciprofloxacin, reference compound]
IC50 ([3]; ATCC23068, read-out: IC50, M. intracellulare): 0.25 µg/mL (≈ 0.754 µM)

C[C@@H]1N[C@H](CCCCCCCCCCc2cc(CCCCCCCCCC[C@@H]3CC[C@H](O)[C@@H](C)N3)c3[n+](c2)CCC3)CC[C@H]1O.[Cl-] [Compound 1]
MIC [3]: 2.5 µg/mL
fold less toxic than amphotericin B in regard to hemolytic activity (RBC): > 4 fold
Cure (mice without parasitemia till day 28/total mice in group) ([4]; 1 mg/kg × 3 days, ip): 0/5
Cure (mice without parasitemia till day 28/total mice in group) ([4]; 2 mg/kg × 3 days, ip): 0/5
toxicity observed due to treatment ([4]; 1 and 2 mg/Kg/day for 3 days, ip, mice): no significant toxicity

C[C@@H]1N[C@H](CCCCCCCCCCC2=C[C@@H](CCCCCCCCCC[C@@H]3CC[C@@H](O)[C@H](C)N3)[C@@H]3CCCN3C2)CC[C@H]1O [Compound 2, 6,8-bis-[(2R,5R,6R)-5-hydroxy-6-methylpiperidin-2-yl]decyl-[8R,8aS]-6,7-dehydroindolizidine]
MIC [3]: 5 µg/mL (≈ 7.94 µM)
MBC [5]: 10 µg/mL (≈ 15.9 µM)
MIC [5]: 2.5 µg/mL (≈ 3.97 µM)
IC50 [6]: < 1.1 µg/mL

C[C@H]1N[C@@H](CCCCCCCCCCC2=C[C@@H](CCCCCCCCCC[C@@H]3CC[C@H](O)[C@@H](C)N3)[C@@H]3CCCN3C2)CC[C@H]1O [Compound 3, Isoprosopilosine]
MIC [3]: 5 µg/mL (≈ 7.94 µM)
IC50 [6]: < 1.1 µg/mL
IC50 [7]: > 20 µg/mL

C[C@@H]1N[C@H](CCCCCCCCCCc2cc(CCCCCCCCCC[C@H]3CC[C@@H](O)[C@@H](C)N3)c[n+]3c2CCC3)CC[C@H]1O [Compound 4, Isoprosopilosidine]
IC50 [2]: 0.042 µg/mL
IC50 [8]: 0.8 µg/mL
IC50 [7]: > 20 µg/mL

C[C@H]1N[C@@H](CCCCCCCCCCC2=C[C@@H](CCCCCCCCCC[C@H]3CC[C@@H](O)[C@@H](C)N3)[C@@H]3CCCN3C2)CC[C@H]1O [Compound 5, juliprosopine]
MBC ([3]; ATCC23068, read-out: MBC, M. intracellulare): 20 µg/mL (≈ 31.7 µM)
MIC [3]: 20 µg/mL (≈ 31.7 µM)
IC50 [7]: > 20 µg/mL

C[C@@H]1N[C@H](CCCCCCCCCCc2cc(CCCCCCCCCC[C@@H]3CC[C@@H](O)[C@H](C)N3)c3[n+](c2)CCC3)CC[C@H]1O.[Cl-] [Compound 6, Prosopilosidine dihydrochloride]
IC50 [9]: > 20 µg/mL
MBC [5]: 5 µg/mL

C[C@@H]1N[C@H](CCCCCCCCCCC2=C[C@@H](CCCCCCCCCC[C@@H]3CC[C@@H](O)[C@H](C)N3)[C@@H]3CCCN3C2)CC[C@H]1O.Cl.Cl [Compound 7, Prosopilosine dihydrochloride]
IC50 [8]: 3.1 µg/mL
IC50 [9]: > 20 µg/mL
MFC ([10]; ATCC90113, read-out: MFC, C. neoformans): 5 µg/mL
MIC ([10]; ATCC90113, read-out: MIC, C. neoformans): 5 µg/mL
MBC [5]: 5 µg/mL
MIC [5]: 5 µg/mL
IC50 [7]: > 20 µg/mL

C[C@H]1N[C@@H](CCCCCCCCCCC2=C[C@@H](CCCCCCCCCC[C@@H]3CC[C@H](O)[C@@H](C)N3)[C@@H]3CCCN3C2)CC[C@H]1O.Cl.Cl [Compound 8, Isoprosopilosine dihydrochloride]
MBC [5]: 5 µg/mL
MIC [5]: 5 µg/mL

CCO[C@H]1O[C@@H]2O[C@@]3(C)CC[C@H]4[C@H](C)CC[C@@H]([C@H]1C)[C@@]24OO3 [β-Arteether, β-arteether, reference compound]
Cure (mice without parasitemia till day 28/total mice in group) ([4]; 10 mg/kg × 3 days): 5/5

From PMC3715121 (Journal of natural products, 2009)
